Test system: CAR.GD2 T-cells
Test: In vivo activation of iC9 suicide gene by AP1903 in PDX-MB mouse model
Set-up: species or system NSG mice
Method: The in vivo activity of AP1903 on apoptosis induction of CAR. GD2 T-cells was assessed in in vivo PDX-MB mouse model. Briefly, 2×10^5 Med-411FH mCherry/Luciferase were orthotopic infused in 5-week-old female NSG mice. After tumor engraftment, confirmed by bioluminescence monitoring, mice received an intravenous injection (i.v.) of 10×10^6 of NT T or genetically modified CAR.GD2 T cells. Ten days later, when the presence of circulating T cells was confirmed by flow cytometric analysis, mice were randomly divided in four groups and treated or not treated by intraperitoneal (i.p.) infusion with AP1903 (100 mg/mouse) on day +11, day +12 and day +13 (NT-T no AP1903, NT-T AP1903+ or CAR. GD2-T no AP1903, CAR.GD2-T AP1903+). The residual of effector cells was evaluated 24 hours after the last AP1903 treatment by flow cytometric analysis in the peripheral blood or histologic and IHC analysis in brain/tumor tissue. Animals were sacrificed and brains were fixed in 4% formaldehyde in 0.1 mol/L phosphate buffer (pH 7.2) and paraffin embedded. AP1903 (cat. No. 6130, Biotechne-TOCRIS).
The histopathologic analysis was performed as previously reported^74. Briefly, after Haematoxylin/Eosin staining for IHC analysis, the sections were cut to 2.5 μm thick, dewaxed, and rehydrated. Epitope retrieval was performed by boiling the slides with EDTA (pH 9). Endogenous peroxidase was blocked with 3% hydrogen peroxide for 10 minutes followed by another blocking step in 5% serum albumin (BSA) for 1-hour RT. The sections were then incubated with anti-CD3 antibody (1:100, DAKO) or anti-Ki67 (1:100, Abcam) at 4° C. overnight. Secondary biotinylated antibody (K8024, Dako, Carpinteria, USA) and the peroxidase DAB kit (Dako, Carpinteria, USA) were used to reveal the primary antibodies. Slides were then counterstained with hematoxylin, dehydrated with a series of alcohol solutions (70%-100%), followed by three changes of Diasolv and mounted with Diamount (Diapath). Analysis was performed using standard microscopy.

`CC[C@H](C(=O)N1CCCC[C@H]1C(=O)O[C@H](CCc1ccc(OC)c(OC)c1)c1cccc(OCC(=O)NCCNC(=O)COc2cccc([C@@H](CCc3ccc(OC)c(OC)c3)OC(=O)[C@@H]3CCCCN3C(=O)[C@@H](CC)c3cc(OC)c(OC)c(OC)c3)c2)c1)c1cc(OC)c(OC)c(OC)c1` [AP1903] was tested, and the “circulating CAR.GD2-T cells” value (AP1903 i.p. 100 mg/mouse on three consecutive days, compared to untreated) was “significant reduction”, the “tumor-infiltrating CD3+ cells (anti-hCD3 IHC on cerebella slides)” value (AP1903 i.p. on three consecutive days) was “eliminate tumor-infiltrating CD3+ cells” and the “crossing of the BBB” value (systemic (i.p.) administration) was “cross the BBB”.
